Assay [1] addresses T1, recombinant sEH (Homo sapiens, UniProt P34913).
T1 sequence (P34913 1-555): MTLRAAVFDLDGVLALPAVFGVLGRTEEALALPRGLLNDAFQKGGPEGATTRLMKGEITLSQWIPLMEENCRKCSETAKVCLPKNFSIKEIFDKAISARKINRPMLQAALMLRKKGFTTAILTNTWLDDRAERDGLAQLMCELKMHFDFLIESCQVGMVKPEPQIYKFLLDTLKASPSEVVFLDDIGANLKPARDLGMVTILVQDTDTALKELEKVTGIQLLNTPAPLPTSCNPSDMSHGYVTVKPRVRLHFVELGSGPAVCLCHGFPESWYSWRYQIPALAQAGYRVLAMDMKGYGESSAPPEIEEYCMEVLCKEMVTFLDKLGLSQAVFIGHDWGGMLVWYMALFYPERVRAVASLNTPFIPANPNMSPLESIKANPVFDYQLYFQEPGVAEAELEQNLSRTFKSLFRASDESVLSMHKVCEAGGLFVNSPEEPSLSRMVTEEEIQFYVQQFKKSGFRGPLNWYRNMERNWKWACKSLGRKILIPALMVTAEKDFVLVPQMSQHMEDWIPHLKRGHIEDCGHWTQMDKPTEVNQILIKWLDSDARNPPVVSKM
Briefly: Inhibition of EET-dependent sEH activity, reconstituted system. The class given is biochemical.

For assay [2], the target named is T2, sEH in human kidney cells (ACHN) (Homo sapiens, UniProt P34913).
T2 construct: recombinant sEH and human kidney cells (ACHN); endogenous in cells; host or cells: ACHN human kidney cells
T2 sequence (P34913 1-555): T1 sequence (P34913 1-555)
In words: Inhibition of EET-dependent sEH activity in kidney cells. The settings on record: EET 1 μM. The class given is cell-based.

Assay [3] has as its target T3, sEH enzyme in H9c2 cells (Rattus norvegicus, UniProt P80299).
T3 construct: host or cells: H9c2 rat cardiomyocytes
T3 sequence (P80299 1-554): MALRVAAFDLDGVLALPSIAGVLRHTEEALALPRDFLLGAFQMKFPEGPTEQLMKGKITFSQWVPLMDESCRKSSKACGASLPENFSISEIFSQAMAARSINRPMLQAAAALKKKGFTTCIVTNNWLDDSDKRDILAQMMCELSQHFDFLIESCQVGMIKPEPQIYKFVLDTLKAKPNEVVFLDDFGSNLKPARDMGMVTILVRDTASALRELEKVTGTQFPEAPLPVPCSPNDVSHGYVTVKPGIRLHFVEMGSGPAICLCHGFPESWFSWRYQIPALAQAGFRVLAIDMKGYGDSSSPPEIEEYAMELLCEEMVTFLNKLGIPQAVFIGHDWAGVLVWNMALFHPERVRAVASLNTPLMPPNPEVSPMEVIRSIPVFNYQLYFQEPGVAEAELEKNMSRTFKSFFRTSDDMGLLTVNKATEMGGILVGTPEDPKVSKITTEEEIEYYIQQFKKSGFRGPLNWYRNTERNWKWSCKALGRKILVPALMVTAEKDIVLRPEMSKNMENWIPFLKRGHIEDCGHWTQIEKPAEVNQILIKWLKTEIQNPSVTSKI
Briefly: 14,15-DHET formation from added 14,15-EET by H9c2 cells. The class given is cell-based. The protocol:
Expression of sEH enzyme in the cells was confirmed by detection of increased 14,15-DHET formation activity after 1 μM EET (substrate) treatment.
sEH enzyme converts 14,15-EET to 14,15-DHET, so differential levels of 14,15-DHET will reflect sEH activity. After addition of 1 μM 14,15-EET to H9c2 cells, ˜250 ng/ml 14,15-DHET was formed in cell media in 30 min and 4.5-fold higher level of 14,15-DHET was formed when the EET level was increased from 1 μM to 5 μM, verifying EET-dose-dependent 14,15-DHET formation by rat H9c2 cardiomyocyte cells.

In the case of `C=CCc1ccc(O)c(-c2ccc(O)c(CC=C)c2)c1` [Honokiol], the “EET-dependent sEH activity” value is reported as “inhibited” in assay [1] (EET 1 μM, reconstituted system with recombinant sEH) and “inhibited” in assay [2]. Further, in assay [1] (recombinant sEH and ACHN cells), the “inhibitor of the sEH activity (overall statement)” value is given as “potent inhibitors”.
For the molecule `CCCCCC1OC1C/C=C\C/C=C\C/C=C\CCCC(=O)O` (centres unmarked) [14,15-EET], the “14,15-DHET formed in cell media” value in assay [3] (1 μM 14,15-EET, 30 min) is about 250 ng/mL. The “higher level of 14,15-DHET formed” value in assay [3] (EET level increased from 1 μM to 5 μM) is 4.5 fold.

Source of the values: patent US11519922B2, “Methods for identifying risk of chemotherapy-induced cardiotoxicity and targeted medical intervention” (Detroit R&D, Inc., priority 2018, dated 2022).
